The source of these data is ChEMBL document CHEMBL3588743, “Cell-based and virtual fragment screening for adrenergic α2C receptor agonists” (Bioorg Med Chem, 2015).

Bounds are passed on as bounds.

In test [1] the target is T1, Alpha-2C adrenergic receptor (Homo sapiens) (UniProt P18825).
T1 sequence (whole entry): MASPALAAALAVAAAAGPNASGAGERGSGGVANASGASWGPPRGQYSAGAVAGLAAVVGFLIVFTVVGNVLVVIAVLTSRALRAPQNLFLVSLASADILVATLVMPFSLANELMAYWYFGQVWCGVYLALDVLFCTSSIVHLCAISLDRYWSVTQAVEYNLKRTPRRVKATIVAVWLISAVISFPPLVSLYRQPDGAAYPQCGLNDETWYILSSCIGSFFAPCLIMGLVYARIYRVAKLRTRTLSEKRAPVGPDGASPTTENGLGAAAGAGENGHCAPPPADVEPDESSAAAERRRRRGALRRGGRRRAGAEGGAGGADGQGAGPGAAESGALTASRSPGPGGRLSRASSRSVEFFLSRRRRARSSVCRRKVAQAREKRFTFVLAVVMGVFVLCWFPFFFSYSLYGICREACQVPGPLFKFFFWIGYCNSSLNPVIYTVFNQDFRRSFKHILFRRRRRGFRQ
Briefly: Agonist activity at recombinant human alpha2c adrenergic receptor expressed in CHOK1 cells co-expressing Gqi5 assessed as induction of cytoplasmic calcium mobilization measured for 40 secs by fluorometric analysis relative to UK14304. The format is functional, cell-based. The settings on record: CHO-K1. (In general: Calcium flux is commonly read through the fluorescence of an indicator in the cells.)

For test [2], the target named is T2, Alpha-2C adrenergic receptor (Homo sapiens, UniProt P18825).
T2 sequence (P18825 whole entry): T1 sequence (whole entry)
Briefly: Agonist activity at recombinant human alpha2c adrenergic receptor expressed in CHOK1 cells co-expressing Gqi5 assessed as induction of cytoplasmic calcium mobilization measured for 40 secs by fluorometric analysis. It is filed as functional, cell-based, CHO-K1.

Test [3] concerns the target T1, Alpha-2C adrenergic receptor (Homo sapiens). Briefly: (§1) Displacement of [3H]-UK14304 from recombinant human alpha2c adrenergic receptor expressed in CHOK1 cell membranes after 30 mins by scintillation counting analysis. Particulars: CHO-K1. (In a radioligand displacement assay an active substance lowers the binding of a labelled ligand.)
Test [4] deals with T2, Alpha-2C adrenergic receptor. Described as §1. Details: species or system CHO-K1.
Test [5] has as its target Somatostatin receptor type 4 (Homo sapiens) (UniProt P31391). Briefly: Agonist activity at recombinant human sst4 receptor expressed in CHOK1 cells co-expressing Galpha16 assessed as induction of cytoplasmic calcium mobilization at 250 uM measured for 40 secs by fluorometric analysis relative to L-803087. The format is functional, cell-based. The settings on record: CHO-K1.

Somatostatin receptor type 4 (Homo sapiens), sequence (P31391 whole entry): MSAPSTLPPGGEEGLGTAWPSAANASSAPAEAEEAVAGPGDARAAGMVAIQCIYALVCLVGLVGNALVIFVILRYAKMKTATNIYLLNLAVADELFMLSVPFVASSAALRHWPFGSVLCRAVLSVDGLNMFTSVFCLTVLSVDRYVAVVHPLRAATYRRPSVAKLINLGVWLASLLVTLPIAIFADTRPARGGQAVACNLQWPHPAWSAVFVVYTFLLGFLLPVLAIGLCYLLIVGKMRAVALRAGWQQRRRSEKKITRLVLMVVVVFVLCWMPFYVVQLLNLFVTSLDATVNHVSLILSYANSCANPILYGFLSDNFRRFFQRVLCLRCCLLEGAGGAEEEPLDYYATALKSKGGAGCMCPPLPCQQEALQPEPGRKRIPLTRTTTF

For `NCC(=O)Nc1ccccc1Oc1ccccc1`, the Emax (as a rule, the size of the effect at its maximum, as opposed to the concentration needed) in test [1] was found to be 93%; in test [3] it was 81%. Further, in test [2], the EC50 (in general, the midpoint of the concentration-response curve) is 631 µM. The Ki – broadly, a measure of affinity in units of concentration, obtained from inhibition or displacement – in test [4] was 15500 nM.

Turning to `O=C(CCC1CCCC1)N1CCSC12CCNCC2`, the Emax was above 82% in test [1] and 81% in test [3]. For the same compound, in test [2], the EC50 was above 501 µM. For the same compound, the Ki in test [4] is 15500 nM.

On to `Cc1ccccc1Cn1ccnc1CNC(C)C`, for which the Emax in test [1] was determined as 55%; in test [3] it was 102%. Moreover, the EC50 in test [2] was 148 µM. The inhibition constant (Ki) in test [4] is 22400 nM.

Turning to `Cc1ccccc1NCc1ccncc1`, the values for the Emax in test [1] and in test [3] were above 66% and 92%, respectively. In test [2], the 50% effective concentration (EC50) was above 501 µM. Further, the inhibition constant Ki in test [4] is 537 nM.

On to `c1ccc(-c2nc(CNCc3cccnc3)c[nH]2)cc1`, for which the Emax in test [1] amounted to 87%; in test [3] it was 102%. For the same compound, the EC50 in test [2] was 479 µM. For the same compound, the Ki in test [4] was 5250 nM.

Turning to `CN1CCN(c2ccccc2N)CC1`, the inhibitory constant (Ki) in test [4] was 240 nM.

In the case of `c1ccc2c(CC3=NCCN3)cccc2c1` [NAPHAZOLINE], the results for the Emax in test [1] and in test [3] were 55% and 102%, respectively. Further, in test [2], the EC50 is 0.055 µM. For the same compound, the Ki in test [4] was 2.29 nM.

In the case of `Brc1cccc(Cn2ccnc2)c1`, the results for the Emax in test [1] and in test [3] were above 105% and 97%, respectively. The EC50 in test [2] was above 501 µM. The Ki in test [4] is 1170 nM.

In the case of `NCCSc1nc2ccccc2o1`, the Emax in test [1] was 49%; in test [3], 92%. The EC50 in test [2] is 3.16 µM. For the same compound, the Ki in test [4] was 646 nM.

As to `CN1CCN(c2ccc(N)cc2)CC1`, the values for the Emax in test [1] and in test [3] were above 36% and 100%, respectively. In addition, the EC50 in test [2] was above 501 µM. In test [5], the Activity was below 10%. The Ki in test [4] is 1510 nM.

`Cc1ccccc1NCc1cnc[nH]1`: the figures for the Emax in test [1] and in test [3] were 60% and 100%, respectively. The EC50 in test [2] was 0.174 µM. In test [4], the Ki was 72.4 nM.

For `CCNCC(=O)N1CCn2cccc2C1c1cccc(Cl)c1` (configuration not stated), the Emax was above 88% in test [1] and 99% in test [3]. In test [2], the EC50 was above 501 µM. Also, the Ki in test [4] is 7240 nM.

On to `CN1CCN(c2cccc(N)c2)CC1`, for which, in test [4], the Ki is 562 nM.

As to `COc1ccccc1OCC1CNCCO1` (configuration not stated), the Emax was above 77% in test [1] and 81% in test [3]. Moreover, in test [2], the EC50 is above 501 µM. Also, the Ki in test [4] was 10500 nM.

Turning to `NCCCN(C(=O)c1ccccc1)c1ccccc1`, the Emax in test [1] is above 51%; in test [3], 104%. Also, the EC50 in test [2] was above 501 µM. In addition, the Ki in test [4] is 8320 nM.

In the case of `c1cncc(-c2ccccc2NCc2ccncc2)c1`, the values for the maximum response (Emax) in test [1] and in test [3] were 56% and 98%, respectively. Also, in test [2], the EC50 was 3.47 µM. Besides, in test [4], the Ki was 1070 nM.

Turning to `OC(Cn1ccnc1)c1ccc(Cl)cc1Cl` (configuration not stated), the figures for the maximal effect (Emax) in test [1] and in test [3] were 123% and 78%, respectively. Besides, in test [2], the EC50 was 339 µM. Also, in test [4], the Ki is 15100 nM.

On to `COc1ccc(C2NCCCn3cccc32)cc1` (configuration not stated), for which the Ki in test [4] was 13800 nM.

With `N#Cc1cccc(-c2ccccc2CCN)c1`, the Emax is above 75% in test [1] and 100% in test [3]. Besides, the EC50 in test [2] was above 501 µM. Further, the Ki in test [4] was 11.7 nM.

On to `Oc1cc2c(cc1O)C(c1ccccc1)CNCC2` (configuration not stated) [SKF-38393], for which the Emax in test [1] is 70%; in test [3] it was 92%. In test [2], the EC50 was 1.38 µM. For the same compound, the Ki in test [4] is 83.2 nM.
